# Active and inactive are the calls of the source. The calls are words filed in the database; no cut-off is given here.
# Tests used:
# Histamine H3 receptor [1] = biological target: T1, Histamine H3 receptor (Homo sapiens, UniProt Q9Y5N1); experiment: Displacement of [125I]-iodoproxyfan from human recombinant histamine H3 receptor expressed in human SK-N-MC cells after 1 hr by scintillation counting; format: cell-based
# [2] = biological target: T2, Voltage-gated inwardly rectifying potassium channel KCNH2 (Homo sapiens, UniProt Q12809); experiment: Inhibition of human ERG by patch clamp technique
# [3] = Bioavailability in Sprague-Dawley rat at 1 mg/kg, iv and 10 mg/kg, po; format: ADME, organism-based; details: in vivo
# hERG (KCNH2) = hERG (KCNH2) (Homo sapiens, UniProt Q12809); experiment: Displacement of radiolabeled astemizole from human ERG at 10 uM; details: probe radiolabeled astemizole
# [4] = Volume of distribution at steady state in Sprague-Dawley rat at 1 mg/kg, iv and 10 mg/kg, po; format: ADME, organism-based; details: in vivo, read-out: Vdss
# [5] = Metabolic stability in rat liver microsomes assessed as compound remaining after 30 mins; format: ADME, Microsome; details: read-out: Stability
# [6] = biological target: T2, Voltage-gated inwardly rectifying potassium channel KCNH2; experiment: Displacement of radiolabeled astemizole from human ERG
# [7] = Clearance in Sprague-Dawley rat at 1 mg/kg, iv and 10 mg/kg, po; format: ADME, organism-based; details: in vivo
# [8] = Drug level in Wistar rat brain at 10 mg/kg, po after 1 hr; format: ADME, organism-based; design: dose 10 mg/kg, route oral; details: read-out: Drug uptake
# [9] = Metabolic stability in human liver microsomes assessed as compound remaining after 30 mins; format: ADME, Microsome; details: read-out: Stability
# [10] = Half life in Sprague-Dawley rat at 1 mg/kg, iv and 10 mg/kg, po; format: ADME, organism-based; details: in vivo
# Rattus norvegicus [11] = experiment: Ex vivo receptor occupancy of histamine H3 receptor in Wistar rat brain at 10 mg/kg, po after 1 hr by autoradiography; format: functional
# [12] = Plasma concentration in Wistar rat at 10 mg/kg, po after 1 hr; format: ADME, organism-based; design: dose 10 mg/kg, route oral; details: read-out: Drug uptake
# Histamine H3 receptor [13] = biological target: T1, Histamine H3 receptor; experiment: Antagonist activity at human histamine H3 receptor expressed in human SK-N-MC cells assessed as inhibition of forskolin-induced cAMP accumulation after 6 hrs; format: functional, cell-based; details: read-out: pA2 (converted)
# Histamine H3 receptor [14] = biological target: T3, Histamine H3 receptor (Rattus norvegicus, UniProt Q9QYN8); experiment: Binding affinity to histamine H3 receptor in rat brain; format: tissue-based
# Histamine H3 receptor [15] = biological target: T3, Histamine H3 receptor; experiment: Antagonist activity at rat histamine H3 receptor expressed in human SK-N-MC cells assessed as inhibition of forskolin-induced cAMP accumulation after 6 hrs; format: functional, cell-based; details: read-out: pA2 (converted)
# [16] = Bioavailability in Beagle dog at 1 mg/kg, iv and 5 mg/kg, po; format: ADME, organism-based, Canis lupus familiaris; details: in vivo
# [17] = Clearance in Beagle dog at 1 mg/kg, iv and 5 mg/kg, po; format: ADME, organism-based, Canis lupus familiaris; details: in vivo
# [18] = Solubility in simulated gastric fluid; format: physicochemical
# [19] = Plasma concentration in Wistar rat at 1 mg/kg, po after 60 mins; format: ADME, organism-based; design: dose 1 mg/kg, route oral; details: read-out: Drug uptake
# [20] = Half life in Beagle dog at 1 mg/kg, iv and 5 mg/kg, po; format: ADME, organism-based, Canis lupus familiaris; details: in vivo
# [21] = Half life in BALB/c mouse at 1 mg/kg, iv and 10 mg/kg, po; format: ADME, organism-based; details: in vivo
# [22] = Bioavailability in BALB/c mouse at 1 mg/kg, iv and 10 mg/kg, po; format: ADME, organism-based; details: in vivo
# [23] = Solubility in water; format: physicochemical
# Rattus norvegicus [24] = experiment: Ex vivo receptor occupancy of histamine H3 receptor in Wistar rat brain at 1 mg/kg, po after 60 mins by [3H]R-alpha-methylhistamine bingind autoradiography; format: functional
# Rattus norvegicus [25] = experiment: Increase of wake duration in rat at 30 mg/kg, s.c.
# Cytochrome P450 2C9 = Cytochrome P450 2C9 (Homo sapiens, UniProt P11712); experiment: Inhibition of CYP2C9 at 10 uM; format: ADME
# Cytochrome P450 3A4 = Cytochrome P450 3A4 (Homo sapiens, UniProt P08684); experiment: Inhibition of CYP3A4 at 10 uM; format: ADME
# [26] = Volume of distribution at steady state in BALB/c mouse at 1 mg/kg, iv and 10 mg/kg, po; format: ADME, organism-based; details: in vivo, read-out: Vdss
# [27] = Clearance in BALB/c mouse at 1 mg/kg, iv and 10 mg/kg, po; format: ADME, organism-based; details: in vivo
# [28] = Permeability from apical to basolateral side of human Caco-2 cells; format: ADME, cell-based; details: read-out: permeability
# [29] = Permeability from basolateral to apical side of human Caco-2 cells; format: ADME, cell-based; details: read-out: permeability
# Cytochrome P450 2D6 = Cytochrome P450 2D6 (Homo sapiens, UniProt P10635); experiment: Inhibition of CYP2D6 at 10 uM; format: ADME
# Rattus norvegicus [30] = experiment: Increase of histamine release in rat frontal cortex at 3 to 30 mg/kg, po measured up to 180 mins; format: functional, organism-based
# [31] = Volume of distribution at steady state in Beagle dog at 1 mg/kg, iv and 5 mg/kg, po; format: ADME, organism-based, Canis lupus familiaris; details: in vivo, read-out: Vdss
# [32] = Fraction unbound in rat plasma; format: ADME, cell-free
# T3 sequence (Q9QYN8 whole entry): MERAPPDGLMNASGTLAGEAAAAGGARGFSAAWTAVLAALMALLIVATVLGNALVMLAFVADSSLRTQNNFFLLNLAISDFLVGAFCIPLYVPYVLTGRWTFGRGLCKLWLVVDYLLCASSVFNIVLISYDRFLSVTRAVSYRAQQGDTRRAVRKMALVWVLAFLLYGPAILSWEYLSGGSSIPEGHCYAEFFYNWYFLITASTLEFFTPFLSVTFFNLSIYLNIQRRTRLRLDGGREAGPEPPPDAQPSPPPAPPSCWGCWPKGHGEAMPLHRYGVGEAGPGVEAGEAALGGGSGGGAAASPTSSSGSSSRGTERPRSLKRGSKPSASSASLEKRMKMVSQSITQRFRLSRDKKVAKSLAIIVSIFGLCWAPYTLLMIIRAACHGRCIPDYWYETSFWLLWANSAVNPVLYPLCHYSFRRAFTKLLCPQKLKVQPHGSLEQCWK
# T1 sequence (Q9Y5N1 whole entry): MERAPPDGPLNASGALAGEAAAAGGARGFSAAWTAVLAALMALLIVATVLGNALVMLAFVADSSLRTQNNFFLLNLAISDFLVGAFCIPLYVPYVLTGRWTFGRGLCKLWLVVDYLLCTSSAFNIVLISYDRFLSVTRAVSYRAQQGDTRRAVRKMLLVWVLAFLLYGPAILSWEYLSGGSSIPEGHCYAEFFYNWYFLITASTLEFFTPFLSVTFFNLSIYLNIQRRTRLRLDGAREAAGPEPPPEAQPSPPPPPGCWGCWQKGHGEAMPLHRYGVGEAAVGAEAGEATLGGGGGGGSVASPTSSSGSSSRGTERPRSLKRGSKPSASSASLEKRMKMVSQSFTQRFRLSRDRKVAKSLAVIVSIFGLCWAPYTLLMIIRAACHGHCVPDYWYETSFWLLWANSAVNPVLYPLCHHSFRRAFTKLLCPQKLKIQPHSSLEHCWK
# T2 sequence (Q12809 whole entry): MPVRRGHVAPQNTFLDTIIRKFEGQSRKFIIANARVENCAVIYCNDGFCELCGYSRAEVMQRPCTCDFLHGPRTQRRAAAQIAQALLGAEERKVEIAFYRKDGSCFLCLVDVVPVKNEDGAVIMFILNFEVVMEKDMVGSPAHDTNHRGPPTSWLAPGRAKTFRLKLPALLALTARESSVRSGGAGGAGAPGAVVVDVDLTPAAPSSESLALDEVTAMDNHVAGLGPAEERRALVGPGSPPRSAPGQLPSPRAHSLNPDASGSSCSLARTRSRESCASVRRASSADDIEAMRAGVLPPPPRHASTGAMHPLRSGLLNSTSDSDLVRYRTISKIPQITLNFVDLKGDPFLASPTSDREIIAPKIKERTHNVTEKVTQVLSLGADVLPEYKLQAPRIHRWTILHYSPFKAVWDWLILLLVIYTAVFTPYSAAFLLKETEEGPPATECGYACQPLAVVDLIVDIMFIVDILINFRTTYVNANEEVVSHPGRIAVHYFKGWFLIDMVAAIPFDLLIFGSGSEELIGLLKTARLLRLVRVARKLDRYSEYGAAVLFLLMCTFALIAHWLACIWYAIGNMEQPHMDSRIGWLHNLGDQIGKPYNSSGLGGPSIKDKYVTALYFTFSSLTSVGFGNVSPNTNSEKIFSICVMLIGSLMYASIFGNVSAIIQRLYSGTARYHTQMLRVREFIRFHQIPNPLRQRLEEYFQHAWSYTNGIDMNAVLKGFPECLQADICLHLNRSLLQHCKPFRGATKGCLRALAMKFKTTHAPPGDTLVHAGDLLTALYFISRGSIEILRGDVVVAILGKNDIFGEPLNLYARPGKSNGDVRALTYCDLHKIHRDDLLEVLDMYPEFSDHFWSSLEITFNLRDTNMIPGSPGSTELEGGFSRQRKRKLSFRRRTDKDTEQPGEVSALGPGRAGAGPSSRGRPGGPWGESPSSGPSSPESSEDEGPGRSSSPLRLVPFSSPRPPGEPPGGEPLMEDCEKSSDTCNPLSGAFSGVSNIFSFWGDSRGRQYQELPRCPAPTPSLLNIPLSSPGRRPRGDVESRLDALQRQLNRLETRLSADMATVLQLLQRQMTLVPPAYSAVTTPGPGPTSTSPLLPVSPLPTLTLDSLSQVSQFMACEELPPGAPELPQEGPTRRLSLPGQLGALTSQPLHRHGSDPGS
# Sequence of hERG (KCNH2) (Q12809 whole entry): as above
# Sequence of Cytochrome P450 2D6 (P10635 whole entry): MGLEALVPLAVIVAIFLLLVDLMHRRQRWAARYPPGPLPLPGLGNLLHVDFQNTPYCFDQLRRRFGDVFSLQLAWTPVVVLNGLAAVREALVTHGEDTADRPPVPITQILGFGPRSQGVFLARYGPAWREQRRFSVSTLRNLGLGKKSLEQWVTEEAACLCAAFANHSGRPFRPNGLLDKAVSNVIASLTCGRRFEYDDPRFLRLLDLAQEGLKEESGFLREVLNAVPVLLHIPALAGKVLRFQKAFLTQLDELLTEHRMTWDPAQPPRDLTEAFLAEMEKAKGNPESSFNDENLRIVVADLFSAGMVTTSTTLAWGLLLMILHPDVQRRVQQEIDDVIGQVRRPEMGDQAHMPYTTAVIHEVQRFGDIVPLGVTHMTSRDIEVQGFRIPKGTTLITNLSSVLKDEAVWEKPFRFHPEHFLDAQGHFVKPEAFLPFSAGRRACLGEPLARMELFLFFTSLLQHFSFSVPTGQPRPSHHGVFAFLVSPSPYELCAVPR
# Sequence of Cytochrome P450 3A4 (P08684 whole entry): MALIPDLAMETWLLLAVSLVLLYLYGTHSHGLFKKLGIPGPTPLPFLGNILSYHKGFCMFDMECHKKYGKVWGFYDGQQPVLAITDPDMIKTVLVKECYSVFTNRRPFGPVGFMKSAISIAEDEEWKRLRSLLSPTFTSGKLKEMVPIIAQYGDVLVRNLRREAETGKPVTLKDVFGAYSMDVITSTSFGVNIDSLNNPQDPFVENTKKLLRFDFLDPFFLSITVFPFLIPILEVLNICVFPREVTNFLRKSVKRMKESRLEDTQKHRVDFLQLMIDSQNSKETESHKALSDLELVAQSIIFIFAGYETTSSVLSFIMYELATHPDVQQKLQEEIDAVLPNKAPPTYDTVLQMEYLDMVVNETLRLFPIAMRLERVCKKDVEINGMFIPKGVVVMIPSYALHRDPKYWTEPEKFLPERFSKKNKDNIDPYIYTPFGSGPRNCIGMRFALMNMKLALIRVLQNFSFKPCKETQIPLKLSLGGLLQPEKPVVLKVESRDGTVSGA
# Sequence of Cytochrome P450 2C9 (P11712 whole entry): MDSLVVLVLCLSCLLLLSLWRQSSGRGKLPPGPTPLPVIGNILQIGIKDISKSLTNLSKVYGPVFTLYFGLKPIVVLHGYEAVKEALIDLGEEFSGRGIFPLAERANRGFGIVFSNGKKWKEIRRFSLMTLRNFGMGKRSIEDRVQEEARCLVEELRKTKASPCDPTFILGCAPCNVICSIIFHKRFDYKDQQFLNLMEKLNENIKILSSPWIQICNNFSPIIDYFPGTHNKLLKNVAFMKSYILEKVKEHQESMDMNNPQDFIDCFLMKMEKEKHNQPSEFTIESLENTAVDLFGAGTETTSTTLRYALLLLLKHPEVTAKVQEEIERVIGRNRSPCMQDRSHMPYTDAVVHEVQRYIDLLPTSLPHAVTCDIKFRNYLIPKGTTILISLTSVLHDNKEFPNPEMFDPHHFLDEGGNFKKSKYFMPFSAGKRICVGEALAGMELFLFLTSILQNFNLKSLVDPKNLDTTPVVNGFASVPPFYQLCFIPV
structure (smiles),measurement,setting,value
CC(C)N1CCN(C(=O)c2ccc(Oc3ccccc3Cl)nc2)CC1,Ki,Histamine H3 receptor [1],31 nM
O=C(c1ccc(Oc2cccc(F)c2)nc1)N1CCCN(C2CCC2)CC1,IC50,[2],5400 nM
same,bioavailability,[3],11%
same,inhibition at 10 µM,hERG (KCNH2),0%
same,Vd,[4],4.2 L/kg
same,remaining at 0.5 h,[5],86%
same,IC50,[6],> 10000 nM
same,clearance,[7],118 mL/min/kg
same,concentration at 1 h,[8],1960 nM
same,Ki,Histamine H3 receptor [1],4.1 nM
same,remaining at 0.5 h,[9],99%
same,half-life,[10],48 min
same,Activity,Rattus norvegicus [11],88%
same,concentration at 1 h,[12],360 nM
O=C(c1ccc(Oc2ccccc2)nc1)N1CCCN(C2CCC2)CC1,Kb,Histamine H3 receptor [13],0.269 nM
same,remaining at 0.5 h,[5],90%
same,Ki,Histamine H3 receptor [14],15 nM
same,concentration at 1 h,[8],300 nM
same,Ki,Histamine H3 receptor [1],4.4 nM
same,remaining at 0.5 h,[9],99%
same,Kb,Histamine H3 receptor [15],3.72 nM
same,concentration at 1 h,[12],210 nM
CCN1CCCN(C(=O)c2ccc(Oc3ccc(F)cc3)nc2)CC1,Ki,Histamine H3 receptor [1],34 nM
O=C(c1ccc(Oc2cccc(Cl)c2)nc1)N1CCCN(C2CC2)CC1,remaining at 0.5 h,[5],41%
same,Ki,Histamine H3 receptor [14],75 nM
same,concentration at 1 h,[8],300 nM
same,Ki,Histamine H3 receptor [1],17 nM
same,remaining at 0.5 h,[9],70%
same,Kb,Histamine H3 receptor [15],11.5 nM
same,concentration at 1 h,[12],310 nM
O=C(c1ccc(Sc2ccccc2)nc1)N1CCCN(C2CCC2)CC1,Ki,Histamine H3 receptor [1],2.3 nM
CC(C)N1CCCN(C(=O)c2ccc(Oc3ccc(Cl)c(Cl)c3)cn2)CC1,Kb,Histamine H3 receptor [13],0.309 nM
same,Ki,Histamine H3 receptor [1],1.5 nM
CC(C)N1CCN(C(=O)c2ccc(Oc3cccc(Cl)c3)nc2)CC1,Ki,Histamine H3 receptor [1],100 nM
O=C(c1ccc(Sc2ccccc2)cn1)N1CCCN(C2CCC2)CC1,Ki,Histamine H3 receptor [1],3.7 nM
CC(C)N1CCCN(C(=O)c2cccc(Oc3ccc(Cl)c(Cl)c3)n2)CC1,Ki,Histamine H3 receptor [1],430 nM
O=C(c1ccc(Oc2cccc(F)c2)cn1)N1CCCN(C2CCC2)CC1,Ki,Histamine H3 receptor [1],5.5 nM
O=C(c1cccc(Oc2ccc(Cl)c(Cl)c2)n1)N1CCCN(C2CCC2)CC1,Ki,Histamine H3 receptor [1],160 nM
CN1CCCN(C(=O)c2ccc(Oc3ccc(F)cc3)nc2)CC1,Ki,Histamine H3 receptor [1],860 nM
CC(C)N1CCN(C(=O)c2ccc(Oc3ccc(Cl)c(Cl)c3)nc2)CC1,Ki,Histamine H3 receptor [1],78 nM
O=C(c1ccc(Oc2ccc(F)cc2)nc1)N1CCCNCC1,Ki,Histamine H3 receptor [1],9000 nM
O=C(c1cncc(Oc2ccc(F)cc2)c1)N1CCCN(C2CCC2)CC1,Ki,Histamine H3 receptor [1],17 nM
N#Cc1cccc(Oc2ccc(C(=O)N3CCCN(C4CCC4)CC3)cn2)c1,IC50,[2],> 10000 nM
same,bioavailability,[16],29%
same,bioavailability,[3],89%
same,inhibition at 10 µM,hERG (KCNH2),23%
same,Kb,Histamine H3 receptor [13],0.407 nM
same,clearance,[17],21 mL/min/kg
same,solubility,[18],> 1 mg/mL
same,concentration at 1 h,[19],160 ng/mL
same,Vd,[4],1.4 L/kg
same,remaining at 0.5 h,[5],87%
same,Ki,Histamine H3 receptor [14],11 nM
same,half-life,[20],54 min
same,IC50,[6],> 10000 nM
same,half-life,[21],48 min
same,bioavailability,[22],21%
same,solubility,[23],> 100 mg/mL
same,Activity,Rattus norvegicus [24],90%
same,clearance,[7],41 mL/min/kg
same,concentration at 1 h,[8],960 nM
same,Activity,Rattus norvegicus [25],Active
same,Ki,Histamine H3 receptor [1],1.8 nM
same,remaining at 0.5 h,[9],99%
same,Activity,Cytochrome P450 2C9,Not Active
same,Activity,Cytochrome P450 3A4,Not Active
same,Vd,[26],4.4 L/kg
same,Kb,Histamine H3 receptor [15],9.55 nM
same,half-life,[10],42 min
same,clearance,[27],97 mL/min/kg
same,Activity,Rattus norvegicus [11],87%
same,Papp A→B,[28],77 ×10⁻⁶ cm/s
same,Papp B→A,[29],25 ×10⁻⁶ cm/s
same,Activity,Cytochrome P450 2D6,Not Active
same,Activity,Rattus norvegicus [30],Active
same,Vd,[31],1.6 L/kg
same,concentration at 1 h,[12],6020 nM
same,fraction unbound,[32],0.79
O=C(c1ccc(Oc2ccc(Cl)cc2)cn1)N1CCCN(C2CCC2)CC1,Ki,Histamine H3 receptor [1],5.5 nM
O=C(c1ccc(Oc2ccc(F)cc2)cn1)N1CCCN(C2CCC2)CC1,bioavailability,[16],14%
same,bioavailability,[3],23%
same,Kb,Histamine H3 receptor [13],1.41 nM
same,clearance,[17],35 mL/min/kg
same,Vd,[4],4.5 L/kg
same,remaining at 0.5 h,[5],56%
same,Ki,Histamine H3 receptor [14],24 nM
same,half-life,[20],114 min
same,clearance,[7],80 mL/min/kg
same,concentration at 1 h,[8],2370 nM
same,Ki,Histamine H3 receptor [1],2.9 nM
same,remaining at 0.5 h,[9],95%
same,Kb,Histamine H3 receptor [15],26.3 nM
same,half-life,[10],60 min
same,Activity,Rattus norvegicus [11],87%
same,Vd,[31],3.6 L/kg
same,concentration at 1 h,[12],1020 nM
O=C(c1cc(Oc2ccc(F)cc2)ccn1)N1CCCN(C2CCC2)CC1,Ki,Histamine H3 receptor [1],5.7 nM
O=C(c1ccc(Oc2ccc(Cl)c(Cl)c2)cn1)N1CCCN(C2CC2)CC1,Ki,Histamine H3 receptor [1],10 nM
O=C(c1ccc(Sc2ccc(F)cc2)cn1)N1CCCN(C2CCC2)CC1,remaining at 0.5 h,[5],7%
same,concentration at 1 h,[8],120 nM
same,Ki,Histamine H3 receptor [1],4.6 nM
same,remaining at 0.5 h,[9],82%
same,concentration at 1 h,[12],30 nM

# Reference: ChEMBL document CHEMBL1177792, “Pre-clinical characterization of aryloxypyridine amides as histamine H3 receptor antagonists: identification of candidates for clinical development” (Bioorg Med Chem Lett, 2010)
